# Key:
# [1] = design: method as in PMID 16673812; conditions: oral administration; cited from earlier work
structure (smiles),measurement,setting,value
COC(=O)C(Cc1ccc(O)cc1)NC(=O)c1ccc(C(=O)NC(Cc2ccc(O)cc2)C(=O)OC)cc1 (stereo not drawn),melting point,,185 °C
COC(=O)C(NC(=O)c1ccc(C(=O)NC(C(=O)OC)C(C)C)cc1)C(C)C (stereo not drawn),melting point,,115 °C
COC(=O)C(CO)NC(=O)c1ccc(C(=O)NC(CO)C(=O)OC)cc1 (stereo not drawn),melting point,,169 °C
COC(=O)CNC(=S)c1ccc(C(=S)NCC(=O)OC)cc1,melting point,,86 °C
COC(=O)C(C)NC(=S)c1ccc(C(=S)NC(C)C(=O)OC)cc1 (stereo not drawn),melting point,,174 °C
COC(=O)C(Cc1ccc(O)cc1)NC(=S)c1ccc(C(=S)NC(Cc2ccc(O)cc2)C(=O)OC)cc1 (stereo not drawn),melting point,,170 °C
COC(=O)C(NC(=S)c1ccc(C(=S)NC(C(=O)OC)C(C)C)cc1)C(C)C (stereo not drawn),melting point,,160 °C
COC(=O)C(CO)NC(=S)c1ccc(C(=S)NC(CO)C(=O)OC)cc1 (stereo not drawn),melting point,,179 °C
"O=C(O)c1ccc(C(=O)O)cc1 [TPA, Terephthalic acid]",LD50,[1],> 5000 mg/kg
